Literature values in patent US20240075000A1 (priority 2021, published 2024).

Key:
[1] = test system: resistance-trained adults; conditions: in vivo; cited from earlier work
fetus = conditions: in vivo; cited from earlier work

| Structure (SMILES) | effects on muscular performance [1] | animal reproduction studies, finding (fetus) |
| --- | --- | --- |
| Cn1c(=O)c2c(ncn2C)n(C)c1=O [Caffeine] | minimal effects on muscular performance |  |
| NC(=O)C[S+]([O-])C(c1ccccc1)c1ccccc1 (centres unmarked) [Modafinil] |  | adverse effect on the fetus |
| CC(N)Cc1ccccc1 (centres unmarked) [amphetamine] |  | adverse effect on the fetus |
| C[C@H](N)Cc1ccccc1 [dextroamphetamine] |  | adverse effect on the fetus |
| COC(=O)C(c1ccccc1)C1CCCCN1 (centres unmarked) [methylphenidate] |  | adverse effect on the fetus |
